Test [1] relates to S. cerevisiae strain BR (AfCyp51B-6×His, AfCprA2-6×His). Put plainly: MIC80 susceptibility, strain BR. Type of test: cell-based. The following applies: Saccharomyces cerevisiae; Table 2; strain BR; SD pH 6.8, 48 h, 30 °C; ± SD; read-out: MIC80. As for the experimental part: (§1) The susceptibilities of S. cerevisiae strains to antifungal drugs were determined as minimum growth inhibitory concentration (MIC) values in 200 μL SD pH 6.8 [24]. Serial 2-fold dilutions of 100 μL of azole or control drugs in SD pH 6.8 were prepared in a 96-well microtiter plate. A portion of a 2 mL SD pH 6.8 overnight culture of the test strain was inoculated into 3 mL fresh SD pH 6.8 and incubated for 4 to 6 h at 30 °C to generate logarithmic-phase cells. These cells were then diluted with fresh SD pH 6.8 to OD600nm = 0.01 (3 × 10^4 CFU), and 100 μL of this cell suspension was added to microtiter plate wells. Cell growth after 48 h incubation at 30 °C with shaking at 200 rpm was determined at 600 nm using a BioTek™ Synergy™ 2 multi-Mode microplate reader controlled using Gen5™ Data Analysis Software version 3.16.10 (BioTek Instruments, Winooski, VT, USA). MIC80 values (80% growth inhibition in the presence of the test drug compared with the untreated control) for each yeast construct were determined as technical triplicates repeated three times for three separate clones.

Test [2] deals with S. cerevisiae strain BRE (AfCyp51B-6×His, AfCprA2, AfErg6-FLAG). Put plainly: MIC80 susceptibility, strain BRE. The following applies: for MIC80: strain BRE, ± SD. In kind it is cell-based, Saccharomyces cerevisiae. Here is the method:
as §1

In test [3] the test system is S. cerevisiae strain ARE (AfCyp51A-6×His, AfCprA2, AfErg6-FLAG). Put plainly: MIC80 susceptibility, strain ARE. Type of test: cell-based, Saccharomyces cerevisiae. As for the experimental part: as §1
Test [4] has as its system S. cerevisiae strain ARE I301T (AfCyp51A-6×His I301T, AfCprA2, AfErg6-FLAG). Put plainly: MIC80 susceptibility, strain I301T. In kind it is cell-based, Saccharomyces cerevisiae. As to conditions: for MIC80: ± SD. As for the experimental part:
as §1

The test system of test [5] is S. cerevisiae Y2300 ADΔΔ CYP51 (ScCYP51). Put plainly: MIC80 susceptibility, strain Y2300 (Table S1). Type of test: cell-based, Saccharomyces cerevisiae. The following applies: Saccharomyces cerevisiae. As for the experimental part:
as §1, with “clones. […]” for “clones.”
Table S1. Azole susceptibilities of ScCYP51 and ScCYP51 T322I expressed
Data for each strain was obtained for […] in three biological replicates.

The subject of test [6] is S. cerevisiae strain AR (AfCyp51A-6×His, AfCprA2-6×His). Put plainly: MIC80 susceptibility, strain AR. Type of test: cell-based, Saccharomyces cerevisiae. The following applies: Saccharomyces cerevisiae; Table 2; strain AR; SD pH 6.8, 48 h, 30 °C; ± SD; read-out: MIC80. Here is the method:
as §1

Test [7] relates to S. cerevisiae strain ARE Y121F (AfCyp51A-6×His Y121F, AfCprA2, AfErg6-FLAG). Put plainly: MIC80 susceptibility, strain Y121F. In kind it is cell-based, Saccharomyces cerevisiae. The following applies: for MIC80: Saccharomyces cerevisiae, ± SD, read-out: MIC80. As for the experimental part:
as §1

The subject of test [8] is S. cerevisiae strain BRE (Y2747). The test can be described thus: Sterol analysis of recombinant yeast strain (GC-MS). In kind it is cell-based, Saccharomyces cerevisiae. The following applies: VCZ at concentration slowing growth rate by ~50%, ~1% without VCZ. Here is the method: (§2) Yeast strains grown overnight in SD medium pH 6.8 were inoculated in 20 mL fresh medium and grown to OD600nm = 0.5. The cultures were then treated with VCZ at a concentration that reduced the rate of cell growth by ~50%. Untreated control cultures were harvested by centrifugation after 8 h at a cell density of ~2.5, and VCZ-treated cultures were harvested after ~16 h at a similar cell density. The harvested cells were prepared for sterol extraction and analysis using the method described by Müller et al..

The subject of test [9] is S. cerevisiae strain ARE (Y2746). The test is described as above. In kind it is cell-based, Saccharomyces cerevisiae. As to conditions: VCZ at concentration slowing growth rate by ~50%, 20% without VCZ. Here is the method: as §2
Setting [10] is: Saccharomyces cerevisiae, Table 2, SD pH 6.8, 48 h, 30 °C, read-out: MIC80.
The mark [11] stands for this setting: Saccharomyces cerevisiae, 48 h, pH 6.8, Table 2, strain I301T, SD pH 6.8, 48 h, 30 °C, read-out: MIC80.
[12] abbreviates: Table 2, strain Y121F, SD pH 6.8, 48 h, 30 °C.

The MIC80 is the lowest concentration that inhibits either 80% of growth or 80% of the strains tested, depending on the study.

“And” between values parts separate entries of the source, which are not always exact repeats. Equal entries are not always repeated. Where two headings read alike, the source gives them in different places.

Take `OC(Cn1cncn1)(Cn1cncn1)c1ccc(F)cc1F` [FLC, fluconazole]: the MIC80 was determined as 2.9 ± 0.4 µM in test [1]; 10 ± 1.4 µM in test [2] (setting [10]); 3.8 ± 0.9 µM in test [2] (Saccharomyces cerevisiae, Table 3, read-out: MIC80); 10.0 ± 1.4 µM in test [2] (Table 2, SD pH 6.8, 48 h, 30 °C); 227 ± 19 µM in [3] (Saccharomyces cerevisiae, 48 h, pH 6.8); 151 ± 66 µM in test [3] (Saccharomyces cerevisiae, Table 3, strain ARE, ± SD, read-out: MIC80). For the same compound, the MIC80 in test [3] (Table 2, strain ARE, SD pH 6.8, 48 h, 30 °C, ± SD) was 227 ± 18 µM and 227 ± 18.5 µM; in [4] (setting [11]), 77.2 ± 5.9 µM; in test [4] (Saccharomyces cerevisiae, Table 3, strain ARE I301T, read-out: MIC80), 65 ± 14 µM; in test [5], 6.2 ± 0.3 µM; in test [6] it was 6.5 ± 0.7 µM; in test [7] (setting [12]), 263 ± 31.6 µM. Also, the MIC80 in [7] (Table 3, strain ARE Y121F) came out at 157 ± 33 µM. Also, the “greater susceptibility (MIC80) of strain I301T compared with strain ARE” value in test [4] amounted to 3 fold.

With `C[C@@H](c1ncncc1F)[C@](O)(Cn1cncn1)c1ccc(F)cc1F` [VCZ, voriconazole], the MIC80 in [1] was 0.07 ± 0.01 µM; in test [2] (setting [10]), 0.21 ± 0.02 µM; in test [3] (Saccharomyces cerevisiae, Table 2, strain ARE, SD pH 6.8, 48 h, 30 °C, ± SD, read-out: MIC80), 0.27 ± 0.03 µM; in test [4] (setting [11]), below 0.12 µM; in test [4] (Table 2, strain I301T, SD pH 6.8, 48 h, 30 °C), 0.11 ± 0.00 µM; in test [5], 0.71 ± 0.03 µM. Moreover, the MIC80 in test [6] was 0.11 ± 0.02 µM; in [7] (setting [12]), 2.07 ± 0.21 µM. Further, the “MIC80 of strain BRE relative to strain ADΔΔ” value in test [2] (higher) was 4- to 5 fold. Besides, the “MIC80 of strain ARE relative to strain ADΔΔ” value in test [3] (higher) was 4- to 5 fold. The “eburicol content in the presence of VCZ” value in test [8] is recorded as ~ 20 % of total sterol; in [9], 25 % of total sterol. Further, the “increase in resistance (MIC80) of strain Y121F compared with strain ARE” value in [7] was > 8 fold and 8 fold.

The values above are taken from PMC11678245, “The Molecular Basis of the Intrinsic and Acquired Resistance to Azole Antifungals in Aspergillus fumigatus” (Journal of Fungi, 2024).
